# Data from ChEMBL document CHEMBL4417631, “Oral peptide inhibitors of interleukin-23 receptor and their use to treat inflammatory bowel diseases” (2017).
# Where a SMILES comes first, the peptide text is derived from it.
# Molecular target: T1, Interleukin-23 receptor (Homo sapiens, UniProt Q5VWK5)
# T1 sequence (Q5VWK5 whole entry): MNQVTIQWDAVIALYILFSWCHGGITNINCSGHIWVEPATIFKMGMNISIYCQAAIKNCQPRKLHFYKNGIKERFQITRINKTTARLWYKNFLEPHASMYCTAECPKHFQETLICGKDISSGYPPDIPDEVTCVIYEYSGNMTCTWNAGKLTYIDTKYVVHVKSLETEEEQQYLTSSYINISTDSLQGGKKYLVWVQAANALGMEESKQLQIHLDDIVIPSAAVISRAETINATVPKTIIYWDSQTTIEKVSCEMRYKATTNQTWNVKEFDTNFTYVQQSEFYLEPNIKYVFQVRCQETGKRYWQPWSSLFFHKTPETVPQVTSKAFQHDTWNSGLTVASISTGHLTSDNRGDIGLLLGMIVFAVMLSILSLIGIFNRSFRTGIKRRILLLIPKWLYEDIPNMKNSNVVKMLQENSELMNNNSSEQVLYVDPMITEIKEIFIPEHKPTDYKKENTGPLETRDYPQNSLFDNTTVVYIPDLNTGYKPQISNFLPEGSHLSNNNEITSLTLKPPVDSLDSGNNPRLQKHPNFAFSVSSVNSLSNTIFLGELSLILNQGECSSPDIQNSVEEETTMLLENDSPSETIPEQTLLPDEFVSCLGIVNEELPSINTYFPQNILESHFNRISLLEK
# Assay: Inhibition of interleukin-23 binding to human interleukin-23 receptor incubated for 2 hrs by competitive binding ELISA
row,Compound,IC50
1,CC(=O)N[C@@H](CS)C(=O)N[C@@H](CCC(N)=O)C(=O)N[C@H](C(=O)N[C@@H](Cc1c[nH]c2ccccc12)C(=O)N[C@@H](CCC(N)=O)C(=O)N[C@@H](CS)C(=O)N[C@@H](Cc1ccc(O)cc1)C(=O)N[C@H](CC(=O)N[C@@H](CCCNC(=N)N)C(=O)N[C@H](C(=O)N[C@@H](CC(N)=O)C(=O)NCC(=O)NCCOCC(=O)N[C@H](CCCCN)C(N)=O)C(C)C)Cc1ccc(F)cc1)[C@@H](C)O,> 30 µM
2,CC(=O)N[C@@H](CS)C(=O)N[C@@H](CCC(N)=O)C(=O)N[C@H](C(=O)N[C@@H](Cc1c[nH]c2ccccc12)C(=O)N[C@@H](CCC(N)=O)C(=O)N[C@@H](CS)C(=O)N[C@H](Cc1ccc(O)cc1)C(=O)N[C@@H](Cc1c[nH]c2ccccc12)C(=O)N[C@@H](CCC(C)C)C(=O)N[C@@H](CCC(=O)O)C(=O)N[C@@H](CC(N)=O)C(=O)NCC(N)=O)[C@@H](C)O,> 30 µM
3,CC(C)[C@H](NC(=O)C[C@H](Cc1c[nH]c2ccccc12)NC(=O)[C@H](CC(=O)O)NC(=O)[C@H](C)NC(=O)[C@@H](N)CS)C(=O)N[C@@H](CS)C(=O)N[C@@H](Cc1ccc(O)cc1)C(=O)N[C@@H](Cc1c[nH]c2ccccc12)C(=O)N[C@@H](Cc1cnc[nH]1)C(=O)N[C@H](C(=O)N[C@@H](Cc1ccccc1)C(=O)NCC(N)=O)[C@@H](C)O,> 1 µM
4,CC(=O)N[C@@H](CS)C(=O)N[C@@H](CCC(N)=O)C(=O)N[C@H](C(=O)N[C@@H](Cc1c[nH]c2ccccc12)C(=O)N[C@@H](CCC(N)=O)C(=O)N[C@@H](CS)C(=O)N[C@@H](Cc1ccc(O)cc1)C(=O)N[C@@H](Cc1c[nH]c2ccccc12)C(=O)N1CCC[C@@H]1C(=O)N[C@@H](CCC(=O)O)C(=O)N[C@@H](CC(N)=O)C(=O)NCC(N)=O)[C@@H](C)O,> 30 µM
5,CC(=O)N[C@@H](CS)C(=O)N[C@@H](C)C(=O)N[C@@H](CC(=O)O)C(=O)N[C@@H](Cc1c[nH]c2ccccc12)C(=O)N[C@H](C(=O)N[C@@H](CS)C(=O)N[C@@H](Cc1ccc(O)cc1)C(=O)NC1(C(=O)N[C@@H](Cc2cnc[nH]2)C(=O)N[C@H](C(=O)N[C@@H](Cc2ccccc2)C(=O)NCC(=O)NCCOCC(=O)N[C@H](CCCCN)C(N)=O)[C@@H](C)O)Cc2ccccc2C1)C(C)C,> 1 µM
6,CC(=O)NCCCC[C@H](NC(=O)[C@](C)(CCCCN)NC(=O)[C@H](Cc1ccc2ccccc2c1)NC(=O)[C@@H](NC(=O)[C@H](CCC(N)=O)NC(=O)[C@H](Cc1c[nH]c2ccccc12)NC(=O)[C@@H](NC(=O)[C@H](CCC(N)=O)NC(=O)[C@@H](NC(C)=O)C(C)(C)S)[C@@H](C)O)C(C)(C)S)C(=O)N[C@@H](CC(N)=O)C(=O)NCC(N)=O,> 10 µM
7,CC(=O)N[C@@H](CS)C(=O)N[C@@H](C)C(=O)N[C@@H](CC(=O)O)C(=O)N[C@@H](Cc1c[nH]c2ccccc12)C(=O)N[C@H](C(=O)N[C@@H](CS)C(=O)N[C@@H](Cc1ccc(O)cc1)C(=O)N[C@@H](Cc1c[nH]c2ccccc12)C(=O)N[C@@H](Cc1cnc[nH]1)C(=O)N[C@H](C(=O)N[C@@H](Cc1ccccc1)C(=O)N[C@H](CCCCN)C(=O)O)[C@@H](C)O)C(C)C,> 1 µM
8,CC(=O)N[C@H](CCCCNC(=O)COCC(=O)NCCCC[C@@H](NC(C)=O)C(=O)N[C@@H](CO)C(=O)N[C@@H](CS)C(=O)N[C@@H](C)C(=O)N[C@@H](CC(=O)O)C(=O)N[C@@H](Cc1c[nH]c2ccccc12)C(=O)N[C@H](C(=O)N[C@@H](CS)C(=O)N[C@@H](Cc1ccc(O)cc1)C(=O)N[C@@H](Cc1c[nH]c2ccccc12)C(=O)N[C@@H](Cc1cnc[nH]1)C(=O)N[C@H](C(=O)N[C@@H](Cc1ccccc1)C(=O)NCC(=O)O)[C@@H](C)O)C(C)C)C(=O)N[C@@H](CO)C(=O)N[C@@H](CS)C(=O)N[C@@H](C)C(=O)N[C@@H](CC(=O)O)C(=O)N[C@@H](Cc1c[nH]c2ccccc12)C(=O)N[C@H](C(=O)N[C@@H](CS)C(=O)N[C@@H](Cc1ccc(O)cc1)C(=O)N[C@@H](Cc1c[nH]c2ccccc12)C(=O)N[C@@H](Cc1cnc[nH]1)C(=O)N[C@H](C(=O)N[C@@H](Cc1ccccc1)C(=O)NCC(=O)O)[C@@H](C)O)C(C)C,> 10 µM

# Continued, values first:
row,IC50,Compound
1,< 0.5 µM,CC(=O)N[C@@H](CS)C(=O)N[C@@H](CCCNC(=N)N)C(=O)N[C@H](C(=O)N[C@@H](Cc1c[nH]c2ccccc12)C(=O)N[C@@H](CCC(=O)O)C(=O)N[C@@H](CS)C(=O)N[C@@H](Cc1ccc(O)cc1)C(=O)N[C@@H](Cc1c[nH]c2ccccc12)C(=O)N[C@@H](Cc1cnc[nH]1)C(=O)N[C@@H](CCC(=O)O)C(=O)N[C@@H](CCC(N)=O)C(=O)N[C@@H](CO)C(N)=O)[C@@H](C)O (Ac-CRTWECYWHEQS-NH2)
2,0.025 to 0.1 µM,CC(=O)N[C@@H](CS)C(=O)N[C@@H](C)C(=O)N[C@@H](CC(=O)O)C(=O)N[C@@H](Cc1c[nH]c2ccccc12)C(=O)N[C@H](C(=O)N[C@@H](CS)C(=O)N[C@@H](Cc1ccc(O)cc1)C(=O)N[C@@H](Cc1c[nH]c2ccccc12)C(=O)N[C@@H](Cc1cnc[nH]1)C(=O)N[C@H](C(=O)N[C@@H](Cc1ccccc1)C(=O)NCC(=O)NCCOCC(=O)N[C@H](CCCCNC(=O)COCC(=O)NCCCC[C@@H](NC(=O)COCCNC(=O)CNC(=O)[C@H](Cc1ccccc1)NC(=O)[C@@H](NC(=O)[C@H](Cc1cnc[nH]1)NC(=O)[C@H](Cc1c[nH]c2ccccc12)NC(=O)[C@H](Cc1ccc(O)cc1)NC(=O)[C@H](CS)NC(=O)[C@@H](NC(=O)[C@H](Cc1c[nH]c2ccccc12)NC(=O)[C@H](CC(=O)O)NC(=O)[C@H](C)NC(=O)[C@H](CS)NC(C)=O)C(C)C)[C@@H](C)O)C(=O)O)C(=O)O)[C@@H](C)O)C(C)C
3,< 0.5 µM,CC(=O)N[C@@H](CS)C(=O)N[C@@H](CCC(N)=O)C(=O)N[C@H](C(=O)N[C@@H](Cc1c[nH]c2ccccc12)C(=O)N[C@@H](CCC(N)=O)C(=O)N[C@@H](CS)C(=O)N[C@@H](Cc1ccc(O)cc1)C(=O)N[C@@H](Cc1c[nH]c2ccccc12)C(=O)N[C@@H](CC(C)C)C(=O)N[C@@H](CCC(=O)O)C(=O)N[C@@H](CC(N)=O)C(=O)NCC(N)=O)[C@@H](C)O
4,< 0.5 µM,CC(=O)N[C@@H](CS)C(=O)N[C@H](C(=O)N[C@H](C(=O)N[C@@H](Cc1c[nH]c2ccccc12)C(=O)N[C@@H](CCC(=O)O)C(=O)N[C@@H](CS)C(=O)N[C@@H](Cc1ccc(O)cc1)C(=O)N[C@@H](Cc1c[nH]c2ccccc12)C(=O)N[C@@H](Cc1cnc[nH]1)C(=O)N[C@@H](CCC(=O)O)C(=O)N[C@@H](Cc1ccccc1)C(=O)NCC(N)=O)[C@@H](C)O)[C@@H](C)O (Ac-CTTWECYWHEFG-NH2)
5,0.1 to 1 µM,COc1ccc(C[C@H](NC(=O)[C@@H](NC(=O)[C@H](CCC(N)=O)NC(=O)[C@H](Cc2c[nH]c3ccccc23)NC(=O)[C@@H](NC(=O)[C@H](CCC(N)=O)NC(=O)[C@@H](NC(=O)Cc2ccc(-c3ccccc3)cc2)C(C)(C)S)[C@@H](C)O)C(C)(C)S)C(=O)N[C@@H](Cc2ccc3ccccc3c2)C(=O)N[C@@](C)(CCCCN)C(=O)N[C@@H](CCCCNC(C)=O)C(=O)N[C@@H](CC(N)=O)C(=O)NCC(N)=O)cc1
6,< 0.5 µM,CC(=O)N[C@@H](CS)C(=O)N[C@H](C(=O)N[C@H](C(=O)N[C@@H](Cc1c[nH]c2ccccc12)C(=O)N[C@H](C(=O)N[C@@H](CS)C(=O)N[C@@H](Cc1ccc(O)cc1)C(=O)N[C@@H](Cc1c[nH]c2ccccc12)C(=O)N[C@@H](Cc1cnc[nH]1)C(=O)N[C@@H](CCC(N)=O)C(=O)N[C@@H](Cc1ccc(O)cc1)C(=O)NCC(N)=O)[C@@H](C)O)[C@@H](C)O)[C@@H](C)O (Ac-CTTWTCYWHQYG-NH2)
7,0.5 to 1 µM,NC(=O)CNC(=O)[C@H](Cc1ccc(O)cc1)NC(=O)[C@H](Cc1cnc[nH]1)NC(=O)[C@H](Cc1cnc[nH]1)NC(=O)[C@H](Cc1c[nH]c2ccccc12)NC(=O)[C@H](Cc1ccc(O)cc1)NC(=O)[C@H](CS)NC(=O)[C@H](CCC(=O)O)NC(=O)[C@H](Cc1c[nH]c2ccccc12)NC(=O)[C@H](CC(N)=O)NC(=O)[C@H](CO)NC(=O)[C@@H](N)CS (H-CSNWECYWHHYG-NH2)
8,6 µM,CC(=O)N[C@@H](CS)C(=O)N[C@@H](C)C(=O)N[C@@H](CC(=O)O)C(=O)N[C@@H](Cc1c[nH]c2ccccc12)C(=O)N[C@H](C(=O)N[C@@H](CS)C(=O)N[C@@H](Cc1ccc(O)cc1)C(=O)N[C@H](CC(=O)N[C@@H](CCCN)C(=O)N[C@@H](CN)C(=O)N[C@@H](Cc1ccccc1)C(=O)NCC(=O)NCCOCC(=O)N[C@H](CCCCN)C(N)=O)Cc1c[nH]c2ccccc12)C(C)C
9,30 µM,CC(=O)N[C@@H](CS)C(=O)N[C@@H](CCC(N)=O)C(=O)N[C@H](C(=O)N[C@@H](Cc1c[nH]c2ccccc12)C(=O)N[C@@H](CCC(N)=O)C(=O)N[C@@H](CS)C(=O)N[C@@](C)(Cc1ccccc1)C(=O)N[C@@H](Cc1c[nH]c2ccccc12)C(=O)N[C@@H](CCC(C)C)C(=O)N[C@@H](CCC(=O)O)C(=O)N[C@@H](CC(N)=O)C(=O)NCC(N)=O)[C@@H](C)O
10,< 0.5 µM,CC(=O)N[C@@H](CS)C(=O)N[C@@H](CCC(N)=O)C(=O)N[C@H](C(=O)N[C@@H](Cc1c[nH]c2ccccc12)C(=O)N[C@H](C(=O)N[C@@H](CS)C(=O)N[C@@H](Cc1ccc(O)cc1)C(=O)N[C@@H](Cc1c[nH]c2ccccc12)C(=O)N[C@@H](CCCNC(=N)N)C(=O)N[C@@H](CCC(=O)O)C(=O)N[C@@H](CC(N)=O)C(=O)NCC(=O)NCCOCC(=O)N[C@H](CCCCN)C(N)=O)C(C)C)[C@@H](C)O
11,< 0.5 µM,CC(=O)N[C@@H](CS)C(=O)N[C@@H](C)C(=O)N[C@@H](CC(=O)O)C(=O)N[C@@H](Cc1c[nH]c2ccccc12)C(=O)N[C@H](C(=O)N[C@@H](CS)C(=O)N[C@@H](Cc1ccc(O)cc1)C(=O)N[C@@H](Cc1c[nH]c2ccccc12)C(=O)N[C@@H](Cc1cnc[nH]1)C(=O)N[C@H](C(=O)N[C@@H](Cc1ccccc1)C(=O)NCC(=O)NCCOCC(=O)N[C@H](CCCCN)C(=O)O)[C@@H](C)O)C(C)C
